Data published in PubChem BioAssay AID248 (DTP/NCI, 2004).
Values joined by “and” are separate entries in the source; they are usually repeats but may differ in a detail not shown here. Equal values may be shown once. Inconclusive results and toxic doses are left out.

Test system: L1210 leukemia ip in BDF1 mice, survival T/C
Experiment: NCI In Vivo Anticancer Drug Screen. Data for tumor model L1210 Leukemia (intraperitoneal) in B6D2F1 (BDF1) mice
Details: endpoint: mean survival time, higher = longer survival
How it was run: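 Transplantable tumor model; survival measured in treated vs vehicle control mice. Value = treated/control.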

[1] = dose: 100.0 mg/kg/injection, schedule: Q04DX003 (ip), vehicle: saline with Tween-80
[2] = dose: 200.0 mg/kg/injection, schedule: Q04DX003 (ip), vehicle: saline with Tween-80
[3] = dose: 400.0 mg/kg/injection, schedule: Q04DX003 (ip), vehicle: saline with Tween-80
[4] = dose: 100.0 mg/kg/injection, schedule: Q01DX001 (ip), vehicle: saline
[5] = dose: 200.0 mg/kg/injection, schedule: Q01DX001 (ip), vehicle: saline
[6] = dose: 400.0 mg/kg/injection, schedule: Q01DX001 (ip), vehicle: saline
[7] = dose: 100.0 mg/kg/injection, schedule: Q01DX009 (ip), vehicle: saline
[8] = dose: 5.0 mg/kg/injection, schedule: Q01DX001 (ip), vehicle: saline
[9] = dose: 10.0 mg/kg/injection, schedule: Q01DX001 (ip), vehicle: saline
[10] = dose: 20.0 mg/kg/injection, schedule: Q01DX001 (ip), vehicle: saline
[11] = dose: 40.0 mg/kg/injection, schedule: Q01DX001 (ip), vehicle: saline
[12] = dose: 100.0 mg/kg/injection, schedule: Q04DX003 (ip), vehicle: saline
[13] = dose: 200.0 mg/kg/injection, schedule: Q04DX003 (ip), vehicle: saline
[14] = dose: 400.0 mg/kg/injection, schedule: Q04DX003 (ip), vehicle: saline
[15] = dose: 100.0 mg/kg/injection, schedule: Q04DX002 (ip), vehicle: saline
[16] = dose: 200.0 mg/kg/injection, schedule: Q04DX002 (ip), vehicle: saline
[17] = dose: 400.0 mg/kg/injection, schedule: Q04DX002 (ip), vehicle: saline

## c1ccc2cc(C3OCC4(CCC4)CO3)ccc2c1
dose: 100.0 mg/kg/injection, schedule: Q01DX001 (ip), vehicle: Klucel (hydroxypropylcellulose) (HPC)
  T/C: 94 % of control
dose: 200.0 mg/kg/injection, schedule: Q01DX001 (ip), vehicle: Klucel (hydroxypropylcellulose) (HPC)
  T/C: 104 % of control
dose: 400.0 mg/kg/injection, schedule: Q01DX001 (ip), vehicle: Klucel (hydroxypropylcellulose) (HPC)
  T/C: 104 % of control

## CC1=CC(=N\S(=O)(=O)c2ccccc2)/C(=N/S(=O)(=O)c2ccccc2)C=C1
[1]
  T/C: 94 % of control
[2]
  T/C: 94 % of control
[3]
  T/C: 92 % of control

## O=C1OC(c2cccc([N+](=O)[O-])c2)=N/C1=C\c1ccccc1
dose: 100.0 mg/kg/injection, schedule: Q01DX009 (ip), vehicle: saline with Tween-80
  T/C: 94 % of control
dose: 200.0 mg/kg/injection, schedule: Q01DX009 (ip), vehicle: saline with Tween-80
  T/C: 102 % of control
dose: 400.0 mg/kg/injection, schedule: Q01DX009 (ip), vehicle: saline with Tween-80
  T/C: 94 % of control

## CCOC(=O)NC(C)NC(=O)OCC
[4]
  T/C: 107 % of control
[5]
  T/C: 101 % of control
[6]
  T/C: 97 % of control

## CCCCCCCCNC(=O)C1OC(n2cnc3c(N)ncnc32)C(O)C1O (stereo not drawn)
dose: 100.0 mg/kg/injection, schedule: Q01DX005 (ip), vehicle: saline with Tween-80
  T/C: 86 % of control
[7]
  T/C: 104 % of control
dose: 200.0 mg/kg/injection, schedule: Q01DX005 (ip), vehicle: saline with Tween-80
  T/C: 105 % of control
dose: 200.0 mg/kg/injection, schedule: Q01DX009 (ip), vehicle: saline
  T/C: 91 % of control
dose: 400.0 mg/kg/injection, schedule: Q01DX009 (ip), vehicle: saline
  T/C: 110 % of control

## Cc1ccc(C(SCC(N)C(=O)O)(c2ccc(C)cc2)c2ccc(C)cc2)cc1 (stereo not drawn)
dose: 4.8 mg/kg/injection, schedule: Q01DX009 (ip), vehicle: saline
  T/C: 95 % of control
dose: 6.5 mg/kg/injection, schedule: Q01DX009 (ip), vehicle: saline
  T/C: 108 % of control
dose: 7.2 mg/kg/injection, schedule: Q01DX009 (ip), vehicle: saline
  T/C: 104 % of control
dose: 12.5 mg/kg/injection, schedule: Q01DX009 (ip), vehicle: saline
  T/C: 123 % of control
dose: 50.0 mg/kg/injection, schedule: Q01DX009 (ip), vehicle: other
  T/C: 120 % of control
dose: 50.0 mg/kg/injection, schedule: Q01DX009 (ip), vehicle: saline
  T/C: 157 % of control
[7]
  T/C: 221 % of control
dose: 400.0 mg/kg/injection, schedule: Q01DX009 (ip), vehicle: other
  T/C: 94 % of control

## O=C1CC(c2ccc(O)cc2)CC(=O)C1C(=O)Nc1ccccc1 (stereo not drawn)
dose: 100.0 mg/kg/injection, schedule: Q01DX001 (ip), vehicle: other
  T/C: 101 % of control
dose: 200.0 mg/kg/injection, schedule: Q01DX001 (ip), vehicle: other
  T/C: 100 % of control
dose: 400.0 mg/kg/injection, schedule: Q01DX001 (ip), vehicle: other
  T/C: 97 % of control

## CCCCCCCCCCCCCCCNC1=C(C)C(=O)C(NCCCCCCCCCCCCCCC)=C(C)C1=O
dose: 100.0 mg/kg/injection, schedule: Q01DX001 (ip), vehicle: carboxymethylcellulose (CMC)
  T/C: 93 % of control
dose: 200.0 mg/kg/injection, schedule: Q01DX001 (ip), vehicle: carboxymethylcellulose (CMC)
  T/C: 98 % of control
dose: 400.0 mg/kg/injection, schedule: Q01DX001 (ip), vehicle: carboxymethylcellulose (CMC)
  T/C: 89 % of control

## O=C(c1ccccc1)c1ccccc1
dose: 50.0 mg/kg/injection, schedule: Q01DX009 (ip), vehicle: Klucel (hydroxypropylcellulose) (HPC)
  T/C: 96 % of control
dose: 75.0 mg/kg/injection, schedule: Q04DX003 (ip), vehicle: saline
  T/C: 100 % of control
dose: 100.0 mg/kg/injection, schedule: Q01DX009 (ip), vehicle: Klucel (hydroxypropylcellulose) (HPC)
  T/C: 101 % of control
dose: 150.0 mg/kg/injection, schedule: Q04DX003 (ip), vehicle: saline
  T/C: 100 % of control
dose: 200.0 mg/kg/injection, schedule: Q01DX009 (ip), vehicle: Klucel (hydroxypropylcellulose) (HPC)
  T/C: 97 % of control
dose: 300.0 mg/kg/injection, schedule: Q04DX003 (ip), vehicle: saline
  T/C: 104 % of control

## CCCCOC(=O)Nc1ccc(N)c(NC(=O)OCCCC)n1
dose: 100.0 mg/kg/injection, schedule: Q01DX009 (ip), vehicle: gum acacia
  T/C: 88 % of control
dose: 100.0 mg/kg/injection, schedule: Q04DX003 (ip), vehicle: gum acacia
  T/C: 99 % of control
dose: 200.0 mg/kg/injection, schedule: Q01DX009 (ip), vehicle: gum acacia
  T/C: 93 % of control
dose: 200.0 mg/kg/injection, schedule: Q04DX003 (ip), vehicle: gum acacia
  T/C: 99 % of control
dose: 400.0 mg/kg/injection, schedule: Q01DX009 (ip), vehicle: gum acacia
  T/C: 91 % of control
dose: 400.0 mg/kg/injection, schedule: Q04DX003 (ip), vehicle: gum acacia
  T/C: 97 % of control

## CNC(=O)OC(C)CN(c1ccccc1)c1ccccc1 (stereo not drawn)
dose: 50.0 mg/kg/injection, schedule: Q01DX001 (ip), vehicle: saline
  T/C: 98 % of control
[4]
  T/C: 104 % of control
[5]
  T/C: 98 % of control
[6]
  T/C: 102 % of control

## O=C(C[n+]1ccccc1-c1ccccn1)c1ccccc1
[8]
  T/C: 103 % of control
[9]
  T/C: 103 % of control
[10]
  T/C: 105 % of control
[11]
  T/C: 113 % of control

## CCOC(=O)CNC(=O)C1CSC(C)(C)N1C=O (stereo not drawn)
[12]
  T/C: 101 % of control
[13]
  T/C: 94 % of control
[14]
  T/C: 101 % of control

## C=CCN(CC=C)c1nc(Oc2ccccc2)nc(Oc2ccccc2)n1
dose: 25.6 mg/kg/injection, schedule: Q04DX002 (ip), vehicle: saline with Tween-80
  T/C: 104 % of control
dose: 64.0 mg/kg/injection, schedule: Q04DX002 (ip), vehicle: saline with Tween-80
  T/C: 101 % of control
[1]
  T/C: 89 % of control
dose: 160.0 mg/kg/injection, schedule: Q04DX002 (ip), vehicle: saline with Tween-80
  T/C: 93 % of control
[2]
  T/C: 92 % of control
dose: 400.0 mg/kg/injection, schedule: Q04DX002 (ip), vehicle: saline with Tween-80
  T/C: 89 % of control
[3]
  T/C: 93 % of control

## CCN1CCCC(Nc2nc(Nc3cc(Cl)cc(Cl)c3)nc3cc(Cl)ccc23)C1 (stereo not drawn)
dose: 100.0 mg/kg/injection, schedule: Q04DX003 (ip), vehicle: saline sonified
  T/C: 95 % of control
dose: 200.0 mg/kg/injection, schedule: Q04DX003 (ip), vehicle: saline sonified
  T/C: 97 % of control
dose: 400.0 mg/kg/injection, schedule: Q04DX003 (ip), vehicle: saline sonified
  T/C: 106 % of control

## Cc1cn([C@@H]2C[C@H](CO)[C@@H](O)C2)c(=O)[nH]c1=O
[4]
  T/C: 105 % of control
[5]
  T/C: 110 % of control
[6]
  T/C: 107 % of control

## O=C1c2cccc3cc([N+](=O)[O-])cc(c23)C(=O)N1C(CO)(CO)CO
[15]
  T/C: 101 % of control
[16]
  T/C: 101 % of control
[17]
  T/C: 99 % of control

## CC1(C)CCC(=NNC(N)=S)CC1
dose: 5.0 mg/kg/injection, schedule: Q01DX001 (ip), vehicle: carboxymethylcellulose (CMC)
  T/C: 101 % of control
dose: 10.0 mg/kg/injection, schedule: Q01DX001 (ip), vehicle: carboxymethylcellulose (CMC)
  T/C: 97 % of control
dose: 20.0 mg/kg/injection, schedule: Q01DX001 (ip), vehicle: carboxymethylcellulose (CMC)
  T/C: 92 % of control
dose: 40.0 mg/kg/injection, schedule: Q01DX001 (ip), vehicle: carboxymethylcellulose (CMC)
  T/C: 92 % of control

## CCCCCOC(=O)CN(CC(=O)OCCCCC)c1ccc(C=O)cc1
[1]
  T/C: 103 % of control
[2]
  T/C: 100 % of control
[3]
  T/C: 92 % of control

## CC1(C)N=C(N)N=C(N)N1c1cccc(OCCCOc2cccc(NC(=O)CBr)c2)c1
[8]
  T/C: 95 % of control
[9]
  T/C: 94 % of control
[10]
  T/C: 101 % of control
[11]
  T/C: 103 % of control

## CCCCN(CCCC)CCC(=O)OCC
[1]
  T/C: 94 % of control
[2]
  T/C: 101 % of control
[3]
  T/C: 89 % of control

## Cn1cccc(C#N)c1=O (tested in a mixture with another compound)
[4]
  T/C: 103 % of control and 113 % of control
[15]
  T/C: 97 % of control and 110 % of control
[12]
  T/C: 97 % of control
[5]
  T/C: 106 % of control and 108 % of control
[16]
  T/C: 98 % of control and 113 % of control
[13]
  T/C: 103 % of control and 106 % of control
[6]
  T/C: 103 % of control and 105 % of control
[17]
  T/C: 100 % of control and 92 % of control
[14]
  T/C: 106 % of control and 91 % of control
